Results taken from ChEMBL document CHEMBL2073961, “Reduced hepatic uptake and intestinal excretion of organic cations in mice with a targeted disruption of the organic cation transporter 1 (Oct1 [Slc22a1]) gene” (Mol Cell Biol, 2001).

Molecular target: T1, Solute carrier family 22 member 1 (Mus musculus, UniProt O08966)
T1 sequence (O08966 whole entry): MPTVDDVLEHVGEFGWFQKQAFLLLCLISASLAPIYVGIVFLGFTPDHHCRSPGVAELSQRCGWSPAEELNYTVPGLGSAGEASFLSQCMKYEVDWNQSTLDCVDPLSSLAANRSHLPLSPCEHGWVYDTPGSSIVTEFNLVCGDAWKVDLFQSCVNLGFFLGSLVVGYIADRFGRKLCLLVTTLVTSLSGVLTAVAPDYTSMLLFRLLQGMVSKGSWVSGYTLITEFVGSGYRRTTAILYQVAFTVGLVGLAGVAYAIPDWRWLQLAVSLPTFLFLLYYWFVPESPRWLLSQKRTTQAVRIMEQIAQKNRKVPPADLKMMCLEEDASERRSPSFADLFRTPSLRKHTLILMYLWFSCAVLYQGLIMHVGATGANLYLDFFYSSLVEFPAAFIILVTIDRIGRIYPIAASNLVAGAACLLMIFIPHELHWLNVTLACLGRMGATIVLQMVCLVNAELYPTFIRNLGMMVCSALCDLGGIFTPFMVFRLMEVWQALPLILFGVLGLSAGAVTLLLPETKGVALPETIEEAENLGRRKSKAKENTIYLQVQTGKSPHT
Assay: TP_TRANSPORTER: decrease in liver concentration in Oct1 -/- mouse
Assay type: functional, organism-based
Conditions: in vivo

C[n+]1ccc(-c2ccccc2)cc1
Activity: substrate [+]

N=C(N)NCc1cccc(I)c1 [IOBENGUANE]
Activity: substrate [+]

CC[N+](CC)(CC)CC [TETRYLAMMONIUM]
Activity: substrate [+]
